Laboratory results: patent publication US8183235B2, “Dihydronaphthalene compound and use thereof” (Tokyo University of Science Educational Foundation …, priority 2007, dated 2012)
pIC50: −log10 of the molar value.

What was measured:
[1] = tested on: central nervous system cancer cells; test: Proliferation inhibition, central nervous system cancer cell panel (summary); type: cell-based; conditions: read-out: cytotoxic activity (extent of effective concentration)
Excerpt: (§1) As a comparison for the inhibition activity, tamoxifen citrate (TAM) was used. In the Table, the concentration units are μM.

[2] = tested on: OVCAR-5; test: Proliferation inhibition of ovarian cancer cells; type: cell-based; conditions: Homo sapiens
Protocol: as §1
(§2) In the same way as in Example 9, the proliferation inhibition activity of naforidaifens A to G was measured with respect to five types of ovarian cancer cells (OVCAR-3, OVCAR-4, OVCAR-5, OVCAR-8, AND SK-OV-3). In the Table, the concentration units are μM.

[3] = tested on: OVCAR-8; test: Proliferation inhibition of ovarian cancer cells; type: cell-based; conditions: Homo sapiens
Protocol: as §1, §2

[4] = tested on: OVCAR-3; test: Proliferation inhibition of ovarian cancer cells; type: cell-based; conditions: Homo sapiens
Protocol: as §1, §2

[5] = tested on: SK-OV-3; test: Proliferation inhibition of ovarian cancer cells; type: cell-based; conditions: Homo sapiens
Protocol: as §1, §2

[6] = tested on: OVCAR-4; test: Proliferation inhibition of ovarian cancer cells; type: cell-based; conditions: Homo sapiens
Protocol: as §1, §2

[7] = tested on: U251; test: Inhibition of propagation of central nervous system cancer cells (sulforhodamin B); type: cell-based; conditions: Homo sapiens, U-251, 48 h; U251, two days of cultivation
Excerpt: as §1

[8] = tested on: SF-268; test: as above; type: cell-based; conditions: Homo sapiens, 48 h; SF-268, two days of cultivation
Excerpt: as §1

[9] = tested on: SF-295; test: as above; type: cell-based; conditions: Homo sapiens, 48 h; SF-295, two days of cultivation
Excerpt: as §1

[10] = tested on: SNB-75; test: as above; type: cell-based; conditions: Homo sapiens, 48 h; SNB-75, two days of cultivation
Excerpt: as §1

[11] = tested on: SF-539; test: as above; type: cell-based; conditions: Homo sapiens, 48 h; SF-539, two days of cultivation
Excerpt: as §1

[12] = tested on: SNB-78; test: as above; type: cell-based; conditions: Homo sapiens, 48 h; SNB-78, two days of cultivation
Excerpt: as §1

[13] = tested on: HT-29; test: Proliferation inhibition of colon cancer cells; type: cell-based; conditions: Homo sapiens
Protocol: as §1
(§3) In the same way as in Example 9, the proliferation inhibition activity of naforidaifens A to G was measured with respect to five types of colon cancer cells (HCC2998, KM-12, HT-29, HCT-15, and HCT-116). In the Table, the concentration units are μM.

[14] = tested on: HCT-116; test: Proliferation inhibition of colon cancer cells; type: cell-based; conditions: Homo sapiens
Protocol: as §1, §3

[15] = tested on: HCT-15; test: Proliferation inhibition of colon cancer cells; type: cell-based; conditions: Homo sapiens
Protocol: as §1, §3

[16] = tested on: HCC2998; test: Proliferation inhibition of colon cancer cells; type: cell-based; conditions: Homo sapiens, HCC 2998
Protocol: as §1, §3

[17] = tested on: KM-12; test: Proliferation inhibition of colon cancer cells; type: cell-based; conditions: Homo sapiens, KM12
Protocol: as §1, §3

[18] = target: 20S proteasome chymotrypsin-like activity (Homo sapiens, UniProt P28074); test: Chymotrypsin-like activity inhibition test; type: biochemical; conditions: for remaining activity at 10 µM: read-out: % Control, Chymotrypsin-like Activity
[19] = target: 20S proteasome (Homo sapiens, UniProt P28072+P28074+Q99436); test: Proteasome inhibition activity, overall judgement; type: biochemical; conditions: for The evaluations (proteasome inhibition activity): overall judgement positive/negative; for Proteasome selectivity: judgement
[20] = tested on: MKN1; test: Proliferation inhibition of stomach cancer cells; type: cell-based; conditions: Homo sapiens, MKN-1
Protocol: as §1
(§4) In the same way as in Example 9, the proliferation inhibition activity of naforidaifens A to G was measured with respect to six types of stomach cancer cells (St-4, MKN1, MKN7, MKN28, MKN45, MKN74). In the Table, the concentration units are μM.

[21] = tested on: St-4; test: Proliferation inhibition of stomach cancer cells; type: cell-based; conditions: Homo sapiens
Protocol: as §1, §4

[22] = tested on: MKN45; test: Proliferation inhibition of stomach cancer cells; type: cell-based; conditions: Homo sapiens, MKN-45
Protocol: as §1, §4

[23] = tested on: MKN28; test: Proliferation inhibition of stomach cancer cells; type: cell-based; conditions: Homo sapiens, MKN-28
Protocol: as §1, §4

[24] = tested on: MKN74; test: Proliferation inhibition of stomach cancer cells; type: cell-based; conditions: Homo sapiens, MKN-74
Protocol: as §1, §4

[25] = tested on: MKN7; test: Proliferation inhibition of stomach cancer cells; type: cell-based; conditions: Homo sapiens, MKN-7
Protocol: as §1, §4

[26] = target: 20S proteasome trypsin-like activity (Homo sapiens, UniProt Q99436); test: Trypsin-like activity inhibition test; type: biochemical; conditions: for remaining activity at 10 µM: read-out: % Control, Trypsin-like Activity
[27] = target: α-chymotrypsin (Bos taurus, UniProt P00766); test: α-Chymotrypsin-like activity inhibition test; type: biochemical
Protocol: α-Chymotrypsin-Like Activity Inhibition Test
(§5) 1) To 20S proteasome, naforidaifen B adjusted to a concentration of 10 μM was added, and incubated at 30° C. for 10 min.
2) To the above test system, fluorescence labeled α-chymotrypsin including a 20S proteasome segmenting sequence was added, and reacted for 1 hr at 30° C.
(§6) 3) The fluorescent substance (AMC) released by the above reaction was excited with 360 nm light and assayed with 460 nm light.
(§7) 4) A test system to which naforidaifen B was not added was measured in the same way as (1) to (3) above, and the enzyme activity for the case of using naforidaifen B was measured.
(§8) 5) Stepwise diluted solutions containing naforidaifen B were prepared, and after carrying out the same evaluations as in (1) to (4), the 50% inhibition concentration (IC50) was determined.
6) As a positive control of the enzyme activity, the well-known proteasome inhibitor Clasto-Lactacystin β-Lactone (Lactacystin activator) and MGI32 were evaluated with the steps (1) to (5).

[28] = tested on: Cathepsin B; test: Cathepsin-like activity inhibition test; type: biochemical
Protocol: Cathepsin-Like Activity Inhibition Test
as §5
2) To the above test system, fluorescence labeled cathepsin including a 20S proteasome segmenting sequence was added, and reacted for 1 hr at 30° C.
as §6, §7, §8
6) As a positive control of the enzyme activity, the known proteasome inhibitor Clasto-Lactacystin β-Lactone (Lactacystin activator) and MGI32 were evaluated with the steps (1) to (5).

[29] = target: 20S proteasome caspase-like activity (Homo sapiens, UniProt P28072); test: Caspase-like activity inhibition test; type: biochemical; conditions: for remaining activity at 10 µM: read-out: % Control, Caspase-like Activity

| SMILES | GI50 [2] | GI50 [3] | GI50 [4] | GI50 [5] | GI50 [6] | GI50 [7] | GI50 [8] | GI50 [9] | GI50 [10] | GI50 [11] | GI50 [12] | GI50 [13] | GI50 [14] | GI50 [15] | GI50 [16] | GI50 [17] | pIC50 [18] | remaining activity at 10 µM [18] | The evaluations (proteasome inhibition activity) [19] | GI50 [20] | other results |
| --- | --- | --- | --- | --- | --- | --- | --- | --- | --- | --- | --- | --- | --- | --- | --- | --- | --- | --- | --- | --- | --- |
| CN(C)CCOc1ccc(C2=C(c3ccccc3)CCc3cc(OCCN(C)C)ccc32)cc1 [Naforidaifen A, 4-[4-(2-dimethylamino-1-yl-ethoxy)phenyl]-7-(2-dimethylamino-1-yl-ethoxy)-3-phenyl-1,2-dihydronaphthalene] | 1550 nM | 2880 nM | 1620 nM | 2290 nM | 2140 nM | 1450 nM | 1950 nM | 1740 nM | 1480 nM | 1550 nM | 1820 nM | 759 nM | 1100 nM | 1660 nM | 1480 nM | 1860 nM | < 5.00 | 99.5% | negative | 1480 nM | pIC50 [1]: 5.72 to 5.85; GI50 [21]: 1480 nM; GI50 [22]: 1740 nM; GI50 [23]: 1820 nM; GI50 [24]: 1410 nM; GI50 [25]: 1580 nM |
| c1ccc(C2=C(c3ccc(OCCN4CCCC4)cc3)c3ccc(OCCN4CCCC4)cc3CC2)cc1 [Naforidaifen B, 4-[4-(2-pyrrolidine-1-yl-ethoxy)phenyl]-7-(2-pyrrolidine-1-yl-ethoxy)-3-phenyl-1,2-dihydronaphthalene] | 1620 nM | 3800 nM | 1580 nM | 3090 nM | 1320 nM | 1580 nM | 2090 nM | 1910 nM | 2000 nM | 1860 nM | 1910 nM | 1450 nM | 1260 nM | 2340 nM | 1580 nM | 1950 nM | 5.34 | 27.1% | positive | 1480 nM | pIC50 [26]: 5.07; remaining activity at 10 µM [26]: 35.3%; α-chymotrypsin inhibition [27]: none; Cathepsin B inhibition [28]: none; Proteasome selectivity [19]: present; pIC50 [29]: 5.60; remaining activity at 10 µM [29]: 16.5%; GI50 [21]: 1860 nM; GI50 [22]: 1660 nM; GI50 [23]: 2190 nM; GI50 [24]: 1660 nM; GI50 [25]: 1580 nM |
| c1ccc(C2=C(c3ccc(OCCN4CCOCC4)cc3)c3ccc(OCCN4CCOCC4)cc3CC2)cc1 [Naforidaifen D, 4-[4-(2-morpholine-1-yl-ethoxy)phenyl]-7-(2-morpholine-1-yl-ethoxy)-3-phenyl-1,2-dihydronaphthalene] | 6920 nM | 25700 nM | 17400 nM | 15500 nM | 18600 nM | 15500 nM | 38900 nM | 14500 nM | 20400 nM | 15800 nM | 28800 nM | 12600 nM | 14800 nM | 19100 nM | 17800 nM | 20000 nM | 5.17 | 22.1% | positive | 18600 nM | pIC50 [26]: 5.39; remaining activity at 10 µM [26]: 21.6%; α-chymotrypsin inhibition [27]: none; Cathepsin B inhibition [28]: none; Proteasome selectivity [19]: present; pIC50 [29]: 5.34; remaining activity at 10 µM [29]: 21.9%; GI50 [21]: 15500 nM; GI50 [22]: 16600 nM; GI50 [23]: 45700 nM; GI50 [24]: 19500 nM; GI50 [25]: 19500 nM |
| CCN(CC)CCOc1ccc(C2=C(c3ccccc3)CCc3cc(OCCN(CC)CC)ccc32)cc1 [Naforidaifen E, 4-[4-(2-diethylamino-1-yl-ethoxy)phenyl]-7-(2-diethylamino-1-yl-ethoxy)-3-phenyl-1,2-dihydronaphthalene] | 1580 nM | 2450 nM | 1860 nM | 1910 nM | 2190 nM | 1510 nM | 1820 nM | 1820 nM | 1510 nM | 1860 nM | 1620 nM | 813 nM | 1200 nM | 1580 nM | 1580 nM | 1950 nM | 5.00 | 49.6% | positive | 1410 nM | pIC50 [26]: < 5.00; remaining activity at 10 µM [26]: 162%; α-chymotrypsin inhibition [27]: none; Cathepsin B inhibition [28]: none; Proteasome selectivity [19]: present; pIC50 [29]: < 5.00; remaining activity at 10 µM [29]: 54.6%; GI50 [21]: 1550 nM; GI50 [22]: 1660 nM; GI50 [23]: 1820 nM; GI50 [24]: 1230 nM; GI50 [25]: 1410 nM |
